Measured values published in BigSolDB 2.1.

O=C1C=CC(=O)c2ccccc21
Details	solubility (mole fraction)
in acetone, 293.27 K	0.0362
in acetone, 295.46 K	0.0373
in acetone, 295.8 K	0.0377
in acetone, 298.25 K	0.0399
in acetone, 298.51 K	0.0403
in acetone, 299.07 K	0.0411
in acetone, 300.66 K	0.0437
in acetone, 302.06 K	0.0467
in acetone, 304 K	0.0503
in acetone, 305.3 K	0.0532
in acetone, 308.24 K	0.0584
in acetone, 311.24 K	0.0639
in acetone, 312.91 K	0.0683
in acetone, 314.97 K	0.0727
in acetone, 316.33 K	0.0767
in acetone, 318.06 K	0.081
in acetone, 319.63 K	0.0856
in ethanol, 279.8 K	0.00145
in ethanol, 285.78 K	0.00221
in ethanol, 289.05 K	0.00277
in ethanol, 292.72 K	0.00335
in ethanol, 296.52 K	0.00412
in ethanol, 299.87 K	0.00487
in ethanol, 303.25 K	0.00596
in ethanol, 305.99 K	0.00696
in ethanol, 309.13 K	0.00825
in ethanol, 311.85 K	0.00945
in ethanol, 314.73 K	0.0109
in ethanol, 316.84 K	0.0121
in ethanol, 319.52 K	0.0134
in ethanol, 321.15 K	0.0145
in ethanol, 322.93 K	0.0157
in ethanol, 328.25 K	0.0199
in ethanol, 329.13 K	0.0212
in ethanol, 331.34 K	0.0235
in ethanol, 333.04 K	0.0256
in ethanol, 334.13 K	0.0274
in ethanol, 335.43 K	0.0294
in n-butanol, 302.1 K	0.00657
in n-butanol, 307.2 K	0.00908
in n-butanol, 312.32 K	0.012
in n-butanol, 317.1 K	0.0152
in n-butanol, 319.33 K	0.017
in n-butanol, 320.94 K	0.0183
in n-butanol, 322.16 K	0.0199
in n-butanol, 325.85 K	0.0238
in n-butanol, 330.35 K	0.0307
in n-butanol, 334.33 K	0.0377
in n-butanol, 336.45 K	0.0434
in n-butanol, 339.23 K	0.05
in n-butanol, 341.3 K	0.056
in n-butanol, 343.26 K	0.0624
in n-butanol, 344.6 K	0.0695
in n-butanol, 346.03 K	0.0763
in toluene, 294.1 K	0.0476
in toluene, 297.82 K	0.0537
in toluene, 300.35 K	0.0585
in toluene, 302.68 K	0.0631
in toluene, 304.44 K	0.0668
in toluene, 306.58 K	0.0723
in toluene, 310.16 K	0.081
in toluene, 313.15 K	0.089
in toluene, 315.25 K	0.094
in toluene, 317.27 K	0.0994
in toluene, 319.93 K	0.107
in toluene, 321.45 K	0.113
in toluene, 322.53 K	0.116
in toluene, 322.93 K	0.118
in toluene, 327.2 K	0.133
in toluene, 330.45 K	0.145
in toluene, 331.95 K	0.153
